From paper PMC12921483 (Frontiers in Pharmacology, 2026)
Read-outs that look alike come from different tables or passages of the source.

Key:
Type in all cases: cell-based
[1] = test system: C-33A; assay: CCK-8 antiproliferative assay, C-33A; details: read-out: IC50 C-33A
Procedure: (§1) Cells were seeded into 96-well plates at a density of 2.5–6 × 10^3 cells per well and incubated for 24 h. They were then treated with a series of eight concentrations of the test compounds (e.g., from 100 to 0.78125 μM or from 2 to 0.015625 μM, prepared by twofold serial dilution) for 48 h. After treatment, the medium was removed and replaced with 100 μL of 10% CCK-8 solution (diluted in fresh medium). Following incubation in the dark for 1–2 h, absorbance at 450 nm was measured using a microplate reader. The half-maximal inhibitory concentration (IC50) was calculated using SPSS software. Each concentration was tested in six replicate wells, and the entire experiment was performed in three independent biological replicates.
(§2) IC50 values were derived by nonlinear regression (SPSS 26). All data are presented as mean ± SD from at least three independent biological replicates (n ≥ 3). Differences were assessed by Student’s t-test (two groups) or one-way ANOVA with Tukey’s post hoc test (multiple groups). […] Statistical significance was set at p < 0.05.

[2] = test system: H8; assay: CCK-8 cytotoxicity, normal cervical epithelial cells H8; details: for IC50: read-out: IC50 H8; for toxicity to H8 cells in words: normal cervical epithelial cells
Procedure: as §1, §2

[3] = test system: HeLa; assay: CCK-8 antiproliferative assay, HeLa
Procedure: as §1, §2

[4] = test system: SiHa; assay: CCK-8 antiproliferative assay, SiHa; details: read-out: IC50 SiHa
Procedure: as §1, §2

[5] = test system: GPX4; assay: Western blot, GPX4 expression in HeLa cells; details: Fer-1 5 μmol/L cotreated with B1, HeLa
[6] = test system: HeLa cells; assay: Fe2+ assay kit; details: Fer-1 5 μmol/L cotreated with 0.22 μmol/L B1, HeLa
Procedure: Intracellular ferrous iron (Fe^2+) levels in HeLa cells were measured using an Fe^2+ assay kit.
(§3) After 24 h of treatment, cells were collected and washed twice with PBS for subsequent analysis. […] Subsequent procedures were performed strictly according to the manufacturer’s instructions of the respective kits: MDA assay kit (Servicebio, Cat# GM1134), Fe^2+ colorimetric assay kit (Servicebio, Cat# GM3052), and reduced GSH assay kit (Servicebio, Cat# GM1139).

[7] = test system: HeLa cells; assay: MDA assay kit; details: Fer-1 5 μmol/L cotreated with 0.22 μmol/L B1, HeLa
Procedure: MDA levels in HeLa cells were detected using an MDA assay kit ([Tsikas et al., 2017]).
After 24 h of treatment, cells were collected and washed twice with PBS for subsequent analysis.

[8] = test system: HeLa cells; assay: GSH assay kit; details: Fer-1 5 μmol/L cotreated with 0.22 μmol/L B1, HeLa
Procedure: Intracellular GSH levels were measured using a GSH assay kit.
as §3

[9] = test system: SLC7A11; assay: Western blot, SLC7A11 expression in HeLa cells; details: Fer-1 5 μmol/L cotreated with B1, HeLa
[10] = Homo sapiens, HeLa, 48 h, read-out: IC50 HeLa
[11] = CCK-8, 48 h, normal cells, Table 1
[12] = CCK-8, 48 h, Table 1, read-out: IC50 HeLa
[13] = Homo sapiens, C-33-A, CCK-8, 48 h, Table 1
[14] = Epithelial cell, CCK-8, 48 h, normal cells, Table 1
[15] = Homo sapiens, HeLa, CCK-8, 48 h, Table 1, read-out: IC50 HeLa
[16] = Homo sapiens, SiHa, CCK-8, 48 h, Table 1

IC50 [3, 10] [µM] | SMILES | IC50 ([1]; Homo sapiens, C-33-A, 48 h) [µM] | IC50 ([2]; Epithelial cell, 48 h) [µM] | IC50 ([4]; Homo sapiens, SiHa, 48 h) [µM] | further results
31.8 ± 1.45 | O=C(/C=C/c1ccc(N2CCCC2)cc1)c1cccc(C(F)(F)F)c1 [Compound A6] | 35.1 ± 0.37 | 86.4 ± 3.17 | 34.5 ± 0.59 | IC50 ([3]; Homo sapiens, HeLa): > 100 µM
16.7 ± 0.65 | COc1ccc(C(=O)/C=C/c2ccc(N3CCCC3)cc2)c(OC)c1 [Compound A2] | 17.9 ± 0.55 | 74 ± 1.05 | 18.3 ± 0.73 | 
9.3 ± 0.57 | COc1ccc(OC)c(C(=O)/C=C/c2ccc(N3CCCC3)cc2)c1 [Compound C1] | 13.8 ± 0.45 | 27.2 ± 2.33 | 9.92 ± 0.67 | IC50 ([3]; Homo sapiens, HeLa): 27.1 µM
0.22 ± 0.01 | COc1ccc(F)cc1C(=O)/C=C/c1ccc(N2CCCC2)cc1 [Compound B1] | 0.95 ± 0.02 | 45.8 ± 1.61 | 0.24 ± 0.03 | toxicity to H8 cells in words [2]: low toxicity; IC50 ([3]; Homo sapiens, HeLa, read-out: IC50 HeLa): ~0.22 µM; IC50 ([4]; Homo sapiens, SiHa): ~0.24 µM
 | N.N.[Cl][Pt][Cl] [Cisplatin, reference compound] |  |  |  | IC50 ([1]; CCK-8, 48 h, Table 1): 12.7 ± 1.09 µM; IC50 [2, 11]: 25.6 ± 1.32 µM; IC50 [3, 12]: 18.23 ± 0.11 µM; IC50 ([4]; CCK-8, 48 h, Table 1): 37 ± 1.54 µM
1.09 ± 0.05 | COc1ccc(Br)cc1C(=O)/C=C/c1ccc(N2CCCC2)cc1 [Compound B2] | 4.4 ± 0.11 | 56.8 ± 0.75 | 1.35 ± 0.13 | 
13.6 ± 0.26 | O=C(/C=C/c1ccc(N2CCCC2)cc1)c1ccccc1C(F)(F)F [Compound A5] | 36.69 ± 0.22 | 78.7 ± 1.41 | 38 ± 0.74 | 
5.25 ± 0.1 | COc1ccc(F)cc1/C=C/C(=O)c1ccc(N2CCCC2)cc1 [Compound D1] | 20.9 ± 1.03 | 19.2 ± 1.08 | 5.44 ± 0.23 | 
32 ± 1.28 | O=C(/C=C/c1cccc(OC(F)(F)F)c1)c1ccc(N2CCCC2)cc1 [Compound D5] | > 100 | > 100 | 44.4 ± 1.64 | 
1.59 ± 0.08 | COc1ccc(Cl)cc1C(=O)/C=C/c1ccc(N2CCCC2)cc1 [Compound B3] | 4.29 ± 0.15 | 57 ± 2.47 | 2.17 ± 0.02 | 
> 100 | O=C(/C=C/c1ccc(N2CCCC2)cc1)c1ccc(C(F)(F)F)cc1 [Compound A8] | > 100 | > 100 | > 100 | 
 | O=C(/C=C/c1ccccc1)c1ccccc1 [Chalcone, reference compound] |  |  |  | IC50 [1, 13]: 58.7 ± 1.05 µM; IC50 [2, 14]: 38.6 ± 1.64 µM; IC50 [3, 15]: 63.9 ± 2.85 µM; IC50 [4, 16]: 69.7 ± 1.67 µM
4.09 ± 0.24 | O=C(/C=C/c1ccccc1OC(F)(F)F)c1ccc(N2CCCC2)cc1 [Compound D4] | 33 ± 2.38 | > 100 | 9.28 ± 0.33 | 
 | COc1ccccc1C(=O)/C(C)=C/c1ccc(N2CCCC2)cc1 [Compound B4] |  |  |  | IC50 [1, 13]: > 100 µM; IC50 [2, 14]: > 100 µM; IC50 [3, 15]: 84.8 ± 2.69 µM; IC50 [4, 16]: 44.7 ± 0.78 µM
 | CCOc1ccccc1-n1c(C(C)N2CCN(C(=O)COc3ccc(Cl)cc3)CC2)nc2ccccc2c1=O (stereo not shown) [Erastin, reference compound] |  |  |  | IC50 ([3]; Homo sapiens, HeLa, CCK-8, Table 3, ferroptosis inducer/inhibitor comparison, read-out: IC50 HeLa): 17.2 ± 0.53 µM
15.7 ± 0.38 | COc1ccc(C(=O)/C=C/c2ccc(N3CCCC3)cc2)c(OC)c1OC [Compound A4] | 21.3 ± 1.02 | 81 ± 1.03 | 7.78 ± 0.24 | 
10.8 ± 0.37 | COc1ccc(Br)cc1/C=C/C(=O)c1ccc(N2CCCC2)cc1 [Compound D2] | 49.8 ± 2.93 | 40 ± 0.55 | 11.55 ± 0.06 | 
3.04 ± 0.03 | COc1ccccc1C(=O)/C=C/c1ccc(N2CCCC2)cc1 [Compound A1] | 4.79 ± 0.19 | 61.3 ± 1.34 | 2.93 ± 0.21 | toxicity to H8 cells in words [2]: low toxicity
0.9 ± 0.02 | O=C(/C=C/c1ccc(N2CCCC2)cc1)c1ccccc1OC(F)(F)F [Compound B5] | 5.93 ± 0.07 | 76.9 ± 3.87 | 0.91 ± 0.03 | 
31.5 ± 1.46 | COc1cccc(OC)c1C(=O)/C=C/c1ccc(N2CCCC2)cc1 [Compound A3] | > 100 | > 100 | 64.44 ± 0.57 | 
27.1 ± 0.59 | O=C(/C=C/c1ccc(N2CCCC2)cc1)c1cc(F)ccc1F [Compound C2] | 44.1 ± 1.99 | 35.1 ± 0.95 | 26.4 ± 1.11 | IC50 ([3]; Homo sapiens, HeLa): 9.3 µM
> 100 | O=C(/C=C/c1ccc(N2CCCC2)cc1)c1cccc(OC(F)(F)F)c1 [Compound B6] | > 100 | > 100 | 49.5 ± 1.4 | 
> 100 | O=C(/C=C/c1ccc(N2CCCC2)cc1)c1ccc(OC(F)(F)F)cc1 [Compound B7] | > 100 | > 100 | > 100 | 
 | COc1ccc(C2=N[C@@H](c3ccc(Cl)cc3)[C@@H](c3ccc(Cl)cc3)N2C(=O)N2CCNC(=O)C2)c(OC(C)C)c1 [Nutlin-3a, reference compound] |  |  |  | IC50 ([1]; CCK-8, 48 h, Table 1): 57 ± 2.81 µM; IC50 [2, 11]: 45.5 ± 2.11 µM; IC50 [3, 12]: 61.3 ± 1.42 µM; IC50 ([4]; CCK-8, 48 h, Table 1): 56.6 ± 2.2 µM
 | O=C(/C=C/c1ccc(N2CCCC2)cc1)c1ccc(Cl)c(Cl)c1Cl [Compound A9] |  |  |  | IC50 [1, 13]: > 100 µM; IC50 [2, 14]: > 100 µM; IC50 [3, 15]: > 100 µM; IC50 [4, 16]: 90.5 ± 3.38 µM
> 100 | O=C(/C=C/c1ccc(OC(F)(F)F)cc1)c1ccc(N2CCCC2)cc1 [Compound D6] | > 100 | > 100 | 77.3 ± 2.13 | 
8.17 ± 0.46 | COc1ccc(Cl)cc1/C=C/C(=O)c1ccc(N2CCCC2)cc1 [Compound D3] | 34.2 ± 1.3 | 22.6 ± 0.32 | 10.9 ± 0.38 | 
27.6 ± 2.23 | Cc1cccc(C(=O)/C=C/c2ccc(N3CCCC3)cc2)c1 [Compound A7] | 37.2 ± 0.19 | 91.6 ± 3.28 | 16.41 ± 0.13 | 
 | CCOC(=O)c1ccc(NC2CCCCC2)c(N)c1 [Ferrostatin-1, ferrostatin-1] |  |  |  | GPX4 protein expression level on cotreatment [5]: increased; Fe^2+ levels on cotreatment [6]: reduced; MDA levels on cotreatment [7]: reduced; intracellular GSH levels on cotreatment [8]: increased; SLC7A11 protein expression level on cotreatment [9]: increased
